Measurements taken from PubChem BioAssay (NCI).
Several values for one entry are separate records, joined by “and”; a condition that tells them apart may be missing. Equal entries are not always repeated.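 Test compounds were applied to cells in 96-well plates for 48 hours at 5 doses. Here, GI50 denotes the concentration required for 50% inhibition of growth. TGI: total growth inhibition.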

Tests used:
Assay in all cases: inhibition of tumour cell growth, NCI panel, 48 h
BT-549 breast = system: BT-549 breast
HCT-116 colon = system: HCT-116 colon
MCF7 breast = system: MCF7 breast
NCI-H226 lung = system: NCI-H226 lung
SF-268 CNS = system: SF-268 CNS
SF-295 CNS = system: SF-295 CNS
SF-539 CNS = system: SF-539 CNS
SN12C renal = system: SN12C renal
SNB-75 CNS = system: SNB-75 CNS
U251 CNS = system: U251 CNS

| SMILES | GI50 (BT-549 breast) [µM] | TGI (BT-549 breast) [µM] | GI50 (HCT-116 colon) [µM] | TGI (HCT-116 colon) [µM] | GI50 (MCF7 breast) | TGI (MCF7 breast) [µM] | GI50 (NCI-H226 lung) [µM] | TGI (NCI-H226 lung) [µM] | GI50 (SF-268 CNS) [µM] | TGI (SF-268 CNS) [µM] | GI50 (SF-295 CNS) [µM] | TGI (SF-295 CNS) [µM] | GI50 (SF-539 CNS) [µM] | TGI (SF-539 CNS) [µM] | GI50 (SN12C renal) [µM] | TGI (SN12C renal) [µM] | GI50 (SNB-75 CNS) [µM] | TGI (SNB-75 CNS) [µM] | GI50 (U251 CNS) [µM] | TGI (U251 CNS) [µM] |
| --- | --- | --- | --- | --- | --- | --- | --- | --- | --- | --- | --- | --- | --- | --- | --- | --- | --- | --- | --- | --- |
| N/C(=N/S(=O)(=O)c1cc(C(=O)Nc2ccc(F)cc2)c(Cl)cc1SCc1ccccc1)Nc1ccccc1O | 1.83 | 4.74 | 1.95 | 4 | 2.79 µM | 6.13 | 16.3 | 30.9 | 2.12 | 5.69 | 1.95 | 3.66 | 1.94 | 4.23 | 1.88 | 3.7 | 1.96 | 3.84 | 1.78 | 3.22 |
| Nc1nc(N)c(-c2ccc(Cl)c(Cl)c2)c(CP(Cl)(Cl)(Cl)Br)n1 | 40.7 | > 100 | 3.52 | > 100 | 16.1 µM | > 100 | 99.7 | > 100 | 7.05 | > 100 | 6.7 | > 100 | 12.9 | > 100 | 6.47 | > 100 | 39.7 | > 100 | 4.8 | > 100 |
| CC(=O)/C=C/c1ccc(N(CCO)Cc2ccc(C(C)(C)C)cc2)cc1 | 47.8 | 178 | 30 | 125 | 26.5 µM | 118 | 73.3 | 248 | 59 | 200 | 40.3 | 176 | 84.3 | 212 | 38.7 | 157 | 54.7 | 200 | 66.1 | 194 |
| CCSCCCC(=O)O |  | > 100 |  | > 100 |  | > 100 |  | > 100 |  | > 100 |  | > 100 |  |  |  | > 100 |  | > 100 |  | > 100 |
| N#CC(C#N)=C1CCC2C(=C(C#N)C#N)CCC12 (centres undefined) |  |  |  | > 100 |  |  |  | > 100 |  | > 100 |  | > 100 |  | > 100 |  | > 100 |  | > 100 |  | > 100 |
| O=c1[nH]c(=O)n(C2OC(CO)C(O)C2O)cc1F (centres undefined) |  | > 100 | 0.00778 | 7.27 | 0.00603 µM and < 0.0164 µM | > 56.4 |  | 27.6 | 0.0491 | > 100 |  | > 100 |  | 3.03 |  | > 100 |  | > 100 | 0.0669 | > 48.7 |
| FC(F)(F)c1nc(Br)[nH]c1C(F)(F)F |  |  |  | > 100 |  |  |  | > 100 |  | > 100 |  | > 100 |  | > 100 |  | > 100 |  | > 100 |  | > 100 |
| CC(=O)[CH-]C(=O)c1ccccc1.CC(=O)[CH-]C(=O)c1ccccc1.CC(=O)[CH-]C(=O)c1ccccc1.[Br-].[Zr+4] |  |  |  |  |  |  |  |  | 56.7 | > 100 | 33.8 | > 100 |  |  | 57.1 | > 100 | 34 | > 100 | 67.7 | > 100 |
| OCC1OC(n2cnc3c(NCc4ccccc4O)ncnc32)C(O)C1O (centres undefined) | 0.177 | 2.29 | 0.131 | 3.4 | 2.05 µM | 17.1 | 8.65 | 23.2 | 0.616 | > 100 | 6.48 | > 56.7 | 0.403 | 2.49 | 0.178 | 20 | 1.74 | 18.3 | 1.16 | > 100 |
| Nc1cc(N)c2nc(-c3ccccc3)c(NCc3ccc(Cl)c(Cl)c3)nc2c1 |  |  | 11.5 | 24.1 | 12.4 µM | 54.3 | 22.6 | 46.3 | 19.8 | 55.2 | 15.5 | 37.2 | 4.6 | 18.8 | 5.98 | 24 |  |  |  |  |
| Cc1ccc(NC2=CC(=O)C(=O)c3ccccc32)cc1 | 1.73 | 3.31 | 2.23 | 9.13 | 1.54 µM | 3.63 | 1.92 | 4.46 | 2.78 | 12.1 | 1.7 | 3.15 | 1.8 | 3.77 | 1.65 | 3.32 | 0.779 | 2.11 | 2.01 | 5.71 |
| CC(C)(C)OC1=C(OC(C)(C)C)C(O)(c2ccc(Cl)cc2)C1=O (centres undefined) |  |  |  |  |  |  |  |  |  | > 100 |  | > 100 |  | > 100 |  | > 100 |  | > 100 |  | > 100 |
| C=C1C(C(=O)O)C1C(=O)O (centres undefined) |  |  |  | > 100 |  |  |  | > 100 |  | > 100 |  | > 100 |  | > 100 |  | > 100 |  | > 100 |  | > 100 |
| CC(=O)c1ccc(Oc2c3ccccc3nc3occc23)cc1 | 47.3 | > 100 | 7.35 | > 100 | 4.08 µM | > 100 | 15.1 | 90.3 | 7.02 | > 100 | 2.02 | 12.5 | 2.53 | 8.41 |  |  | 21.1 | > 100 | 4.21 | > 100 |
| CSc1cc(C(C)(C)C)ccc1C(O)c1ccc(C(C)(C)C)cc1SC |  |  |  | 17.8 |  |  |  | 27 |  | 27.1 |  | 22.6 |  | 32.3 |  | 25.8 |  | 32.3 |  | 27.1 |
| CCOC(=O)c1cc2c(n1Cc1ccccc1OC)-c1oncc1CCC2 | 7.73 | > 100 | 3.79 | > 100 | 0.716 µM | > 100 | > 100 | > 100 | 46.2 | > 100 | 1.38 | 6.1 | 2.48 | 8.57 | > 100 | > 100 |  |  | 3.78 | > 100 |
| CCc1ccccc1NC(=O)C(=O)C(C#N)c1c(Cl)cccc1Cl (centres undefined) |  |  |  | > 100 |  |  |  | > 100 |  | > 100 |  | > 100 |  | > 100 |  | > 100 |  | > 100 |  | > 100 |
